We go through 23 compounds from patent US20220220095A1, “N-((HETEROARYL)METHYL)-1-TOSYL-1H-PYRAZOLE-3-CARBOXAMIDE DERIVATIVES AS Kv3 POTASSIUM CHANNEL ACTIVATORS FOR TREATING NEUROLOGICAL AND [sequence] DISORDERS” (H. Lundbeck A/S, priority 2019, published 2022).

The assay has as its target T1, hKv3.1b (Homo sapiens, UniProt P48547).
T1 construct: expressed in transfected cells
T1 sequence (P48547 1-585 isoform P48547-2): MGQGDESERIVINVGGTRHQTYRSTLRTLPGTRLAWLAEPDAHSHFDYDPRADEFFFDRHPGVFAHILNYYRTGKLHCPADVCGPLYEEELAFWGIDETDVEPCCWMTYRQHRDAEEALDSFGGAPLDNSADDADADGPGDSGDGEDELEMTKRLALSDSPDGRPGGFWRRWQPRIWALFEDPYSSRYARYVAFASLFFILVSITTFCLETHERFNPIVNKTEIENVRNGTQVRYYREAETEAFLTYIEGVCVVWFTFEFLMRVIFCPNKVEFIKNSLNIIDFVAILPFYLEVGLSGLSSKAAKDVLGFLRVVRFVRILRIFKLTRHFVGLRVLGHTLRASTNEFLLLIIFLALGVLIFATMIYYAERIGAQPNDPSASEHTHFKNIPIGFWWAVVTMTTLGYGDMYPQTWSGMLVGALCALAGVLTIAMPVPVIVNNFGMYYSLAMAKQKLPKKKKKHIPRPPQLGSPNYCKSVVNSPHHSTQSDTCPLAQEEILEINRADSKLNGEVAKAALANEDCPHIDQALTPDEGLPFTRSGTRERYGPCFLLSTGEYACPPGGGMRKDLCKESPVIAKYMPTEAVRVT
Description: Automated whole-cell patch-clamp (QPatch-16x) on HEK-293 cells stably expressing hKv3.1b: shift of voltage threshold for channel activation. As to conditions: HEK-293 hKv3.1b; for ECdelta5mV: concentration needed to shift the threshold 5 mV, read out from fitted concentration response curve; for Max Delta threshold: maximum absolute shift of activation threshold to more hyperpolarized potentials at the tested concentrations (0.37, 1.11, 3.33, 10, 30 μM). It counts as cell-based. As to the method: HEK-293 cells stably expressing hKv3.1b was used for the experiments. Cells were cultured in DMEM medium supplemented with 10% Fetal Bovine Serum, 100 ug/mL Geneticidin and 100 u/mL Penicillin/Streptomycin (all from Gibco). Cells were grown to 80-90% confluency at 37° C. and 5% CO2. On the day of the experiment the cells were detached from the tissue culture flasks by Detachin and resuspended in serum free medium containing 25 mM HEPES and transferred to the cell hotel of the QPatch. The cells were used for experiments 0-5 hours after detachment.
Patch-clamp recordings were performed using the automated recording system QPatch-16x (Sophion Bioscience, Denmark). Cells were centrifuged, SFM removed and the cells were resuspended in extracellular buffer containing (in mM): 145 NaCl, 4 KCl, 1 MgCl2, 2 CaCl2, 10 HEPES and 10 glucose (added fresh on the day of experiment); pH 7.4 adjusted with NaOH, 305 mOsm adjusted with sucrose.
Single cell whole-cell recordings were carried out using an intracellular solution containing (in mM): 120 KCl, 32.25/10 KOH/EGTA, 5.374 CaCl2, 1.75 MgCl2, 10 HEPES, 4 Na2ATP (added fresh on the day), pH 7.2 adjusted with KOH, […] adjusted with sucrose. Cell membrane potentials were held at −80 mV and currents were evoked by voltage steps (200 ms duration) from −70 mV to +10 mV (in 10 mV increments).
Leak subtraction protocol was applied at −33% of the sweep amplitude, and serial resistance values were constantly monitored.
Any cell where serial resistance exceeded 25 MOhm, membrane resistance less than 200 MOhm or current size at −10 mV less than 200 pA was eliminated from the subsequent analysis.
Data analysis was performed using Sophion's QPatch assay software in combination with Microsoft Excel™ (Redmond, Wash., USA).
Current voltage relationships were plotted from the peak current at the individual voltage steps normalized to the vehicle addition at 10 mV. The voltage threshold for channel activation was defined as 5% activation of the peak current at 10 mV in presence of vehicle. The activity of the compounds was described as the ability to shift this current voltage relationship to more hyperpolarized potentials and is given as the maximum absolute shift possible at the tested concentrations (0.37, 1.11, 3.33, 10, 30 μM). Concentration response curves were plotted from the threshold shift at the individual concentrations and were fitted excel fit model 205 sigmodal dose-response model (fit=A+((B−A)/1+((C/x)^D)))), where A is the minimum value, B the maximum value, C the EC50 value and D the slope of the curve. The concentration needed to shift the threshold 5 mV was readout from this curve (ECdelta 5 mV).

Turning to `COc1ccc(S(=O)(=O)n2ccc(C(=O)NCc3cnc(C)cn3)n2)cc1C` [Compound 1, 1-(4-methoxy-3-methylbenzene-1-sulfonyl)-N-[(5-methylpyrazin-2-yl)methyl]-1H-pyrazole-3-carboxamide], the ECdelta5mV was 1.8 µM and the “Max Delta threshold” value was found to be 23 mV.
Turning to `COc1ccc(S(=O)(=O)n2ccc(C(=O)NCc3cnccn3)n2)c(C)c1` [Compound 3, 1-(4-methoxy-2-methylbenzene-1-sulfonyl)-N-[(pyrazin-2-yl)methyl]-1H-pyrazole-3-carboxamide], the ECdelta5mV was 1.6 µM and the “Max Delta threshold” value is recorded as 25 mV.
`COc1ccc(S(=O)(=O)n2ccc(C(=O)NCc3cnccn3)n2)cc1C` [Compound 4, 1-(4-methoxy-3-methylbenzene-1-sulfonyl)-N-[(pyrazin-2-yl)methyl]-1H-pyrazole-3-carboxamide]: the ECdelta5mV worked out at 2.1 µM and the “Max Delta threshold” value was 21 mV.
As for `COc1ccc(S(=O)(=O)n2ccc(C(=O)NCc3cnc(C)cn3)n2)cc1` [Compound 5, 1-(4-methoxybenzene-1-sulfonyl)-N-[(5-methylpyrazin-2-yl)methyl]-1H-pyrazole-3-carboxamide], the ECdelta5mV was 1.8 µM and the “Max Delta threshold” value worked out at 26 mV.
As to `COc1ccc(S(=O)(=O)n2ccc(C(=O)NCc3nc(C)cs3)n2)cc1` [Compound 6, 1-(4-methoxybenzene-1-sulfonyl)-N-[(4-methyl-1,3-thiazol-2-yl)methyl]-1H-pyrazole-3-carboxamide], the ECdelta5mV stood at 1.3 µM and the “Max Delta threshold” value is reported as 22 mV.
For `COc1ccc(S(=O)(=O)n2ccc(C(=O)NCc3cncnc3)n2)cc1` [Compound 7, 1-(4-methoxybenzene-1-sulfonyl)-N-[(pyrimidin-5-yl)methyl]-1H-pyrazole-3-carboxamide], in that order: 2.9 µM and 18 mV.
Consider `COc1ccc(S(=O)(=O)n2ccc(C(=O)NCc3ccon3)n2)cc1` [Compound 8, 1-(4-methoxybenzene-1-sulfonyl)-N-[(1,2-oxazol-3-yl)methyl]-1H-pyrazole-3-carboxamide], for which the ECdelta5mV came to 3.8 µM and the “Max Delta threshold” value is 16 mV.
Turning to `COc1ccc(S(=O)(=O)n2ccc(C(=O)NCc3cnoc3)n2)cc1` [Compound 9, 1-(4-methoxybenzene-1-sulfonyl)-N-[(1,2-oxazol-4-yl)methyl]-1H-pyrazole-3-carboxamide], the ECdelta5mV stood at 3.9 µM and the “Max Delta threshold” value was found to be 13 mV.
Consider `COc1ccc(S(=O)(=O)n2ccc(C(=O)NCc3ccno3)n2)cc1` [Compound 10, 1-(4-methoxybenzene-1-sulfonyl)-N-[(1,2-oxazol-5-yl)methyl]-1H-pyrazole-3-carboxamide], for which the ECdelta5mV was found to be 3.4 µM and the “Max Delta threshold” value was 17 mV.
Take `COc1ccc(S(=O)(=O)n2ccc(C(=O)NCc3cnc(C)nc3)n2)cc1` [Compound 11, 1-(4-methoxybenzene-1-sulfonyl)-N-[(2-methylpyrimidin-5-yl)methyl]-1H-pyrazole-3-carboxamide]: the ECdelta5mV came out at 2.4 µM and the “Max Delta threshold” value came out at 29 mV.
Consider `COc1ccc(S(=O)(=O)n2ccc(C(=O)NCc3cocn3)n2)cc1` [Compound 12, 1-(4-methoxybenzene-1-sulfonyl)-N-[(1,3-oxazol-4-yl)methyl]-1H-pyrazole-3-carboxamide], for which the ECdelta5mV was 3.8 µM and the “Max Delta threshold” value stood at 16 mV.
Take `COc1ccc(S(=O)(=O)n2ccc(C(=O)NCc3ncn(C)n3)n2)cc1` [Compound 13, 1-(4-methoxybenzene-1-sulfonyl)-N-[(1-methyl-1H-1,2,4-triazol-3-yl)methyl]-1H-pyrazole-3-carboxamide]: the ECdelta5mV was determined as 4 µM and the “Max Delta threshold” value stood at 16 mV.
Regarding `Cc1cc(CNC(=O)c2ccn(S(=O)(=O)c3ccccc3)n2)on1` [Compound 14, 1-(benzenesulfonyl)-N-[(3-methyl-1,2-oxazol-5-yl)methyl]-1H-pyrazole-3-carboxamide], the ECdelta5mV came out at 4.5 µM and the “Max Delta threshold” value came out at 14 mV.
`Cc1ccc(S(=O)(=O)n2ccc(C(=O)NCc3ncc(C)cn3)n2)cc1` [Compound 15, 1-(4-methylbenzene-1-sulfonyl)-N-[(5-methylpyrimidin-2-yl)methyl]-1H-pyrazole-3-carboxamide]: the ECdelta5mV was determined as 2.6 µM and the “Max Delta threshold” value worked out at 23 mV.
Regarding `Cc1cnc(CNC(=O)c2ccn(S(=O)(=O)c3ccccc3C)n2)o1` [Compound 17, 1-(2-methylbenzene-1-sulfonyl)-N-[(5-methyl-1,3-oxazol-2-yl)methyl]-1H-pyrazole-3-carboxamide], the ECdelta5mV came to 3.9 µM and the “Max Delta threshold” value was 15 mV.
As to `Cc1cccc(S(=O)(=O)n2ccc(C(=O)NCc3ncc(C)o3)n2)c1` [Compound 18, 1-(3-methylbenzene-1-sulfonyl)-N-[(5-methyl-1,3-oxazol-2-yl)methyl]-1H-pyrazole-3-carboxamide], the ECdelta5mV is 7.3 µM and the “Max Delta threshold” value was 13 mV.
For `Cc1cccc(S(=O)(=O)n2ccc(C(=O)NCc3cc(C)no3)n2)c1` [Compound 19, 1-(3-methylbenzene-1-sulfonyl)-N-[(3-methyl-1,2-oxazol-5-yl)methyl]-1H-pyrazole-3-carboxamide], in that order: 2.4 µM and 17 mV.
With `Cc1ccc(CNC(=O)c2ccn(S(=O)(=O)c3cccc(C)c3)n2)nc1` [Compound 20, 1-(3-methylbenzene-1-sulfonyl)-N-[(5-methylpyridin-2-yl)methyl]-1H-pyrazole-3-carboxamide], the ECdelta5mV was 3.9 µM and the “Max Delta threshold” value came out at 12 mV.
On to `Cc1cccc(S(=O)(=O)n2ccc(C(=O)NCc3cnn(C)c3)n2)c1` [Compound 21, 1-(3-methylbenzene-1-sulfonyl)-N-[(1-methyl-1H-pyrazol-4-yl)methyl]-1H-pyrazole-3-carboxamide], for which the ECdelta5mV was 3.7 µM and the “Max Delta threshold” value was 16 mV.
Take `Cc1cccc(S(=O)(=O)n2ccc(C(=O)NCc3ccn(C)n3)n2)c1` [Compound 22, 1-(3-methylbenzene-1-sulfonyl)-N-[(1-methyl-1H-pyrazol-3-yl)methyl]-1H-pyrazole-3-carboxamide]: the ECdelta5mV was 3.7 µM and the “Max Delta threshold” value worked out at 14 mV.
As for `Cc1noc(CNC(=O)c2ccn(S(=O)(=O)c3ccccc3C)n2)n1` [Compound 23, 1-(2-methylbenzene-1-sulfonyl)-N-[(3-methyl-1,2,4-oxadiazol-5-yl)methyl]-1H-pyrazole-3-carboxamide], the ECdelta5mV was 5.3 µM and the “Max Delta threshold” value is given as 13 mV.
With `Cc1ccc(S(=O)(=O)n2ccc(C(=O)NCc3cnccn3)n2)cc1` [Compound 24, 1-(4-methylbenzene-1-sulfonyl)-N-[(pyrazin-2-yl)methyl]-1H-pyrazole-3-carboxamide], the ECdelta5mV was found to be 2 µM and the “Max Delta threshold” value is given as 23 mV.
For `Cc1cnc(CNC(=O)c2ccn(S(=O)(=O)c3ccccc3C)n2)nc1` [Compound 25, 1-(2-methylbenzene-1-sulfonyl)-N-[(5-methylpyrimidin-2-yl)methyl]-1H-pyrazole-3-carboxamide], in that order: 6.5 µM and 13 mV.
